According to patent US12459974B2, “Bicyclic peptide ligands specific for Nectin-4” (priority 2018, dated 2025):
*1 amine or outer side, *2 acyl side, *3 side chain or, on linkers, in order; H or OH if unused. Where a SMILES comes first, the peptide text is derived from it. Bridges are numbered along the chain shown (N, C = ends). Roman numbers before positions name the chains, in order. [ ]: non-standard residue; d: D form. The star is where a group is joined. ξ: configuration not given here. TATA = O=C(CC[*:1])N1CN(C(=O)CC[*:2])CN(C(=O)CC[*:3])C1; Dolaproine = CO[C@@H]([C@@H]1CCCN1)[C@@H](C)C(=O)O; X1 = CC[C@H](C)C(C(CC(=O)[*:2])OC)N(C)[*:1]; 1Nal = N[C@@H](Cc1cccc2ccccc12)C(=O)O; X3 = O=C(CCCC(=O)[*:2])NCCC(=O)[*:1]; PABC = O=C(OCc1ccc(N[*:1])cc1)[*:2]; Hyp = O=C(O)[C@@H]1C[C@@H](O)CN1; hArg = N=C(N)NCCCC[C@H](N)C(=O)O; Cit = NC(=O)NCCC[C@H](N)C(=O)O; X2 = CC(N*)[C@@H](O)c1ccccc1; ξNMeV = CNC(C(=O)O)C(C)C; ξV = CC(C)C(N)C(=O)O; Sar = CNCC(=O)O

System: MDA-MB-468 xenograft
Experiment: Example 9.9: in vivo efficacy of BCY8245 alone or with BCY8234 in MDA-MB-468 xenograft (large tumors) in Balb/c nude mice
Design: species or system Mus Musculus
[1] = 3 mg/kg qw in combination with BCY8234 300 mg/kg qw, day 28

CC[C@H](C)C(C(CC(=O)N1CCC[C@H]1[C@H](OC)[C@@H](C)C(=O)NC(C)[C@@H](O)c1ccccc1)OC)N(C)C(=O)[C@@H](NC(=O)C(C(C)C)N(C)C(=O)OCc1ccc(NC(=O)[C@H](CCCNC(N)=O)NC(=O)C(NC(=O)CCCC(=O)NCCC(=O)N(C)CC(=O)N(C)CC(=O)N(C)CC(=O)N(C)CC(=O)N(C)CC(=O)N(C)CC(=O)N(C)CC(=O)N(C)CC(=O)N(C)CC(=O)N(C)CC(=O)N[C@H]2CSCCC(=O)N3CN4CN(C3)C(=O)CCSC[C@H](NC(=O)[C@@H](CC(=O)O)NC(=O)[C@H](Cc3cccc5ccccc35)NC(=O)[C@@H]3CCCN3C2=O)C(=O)N[C@@H](CCSC)C(=O)N[C@@H](CCCCNC(=N)N)C(=O)N[C@@H](CC(=O)O)C(=O)N[C@@H](Cc2c[nH]c3ccccc23)C(=O)N[C@@H](CO)C(=O)N[C@@H]([C@@H](C)O)C(=O)N2CCC[C@H]2C(=O)N2C[C@H](O)C[C@H]2C(=O)N[C@@H](Cc2c[nH]c3ccccc23)C(=O)N[C@H](C(N)=O)CSCCC4=O)C(C)C)cc1)C(C)C (stereo partly drawn) [BCY8245, MMAE-PABC-Cit-Val-Glutaryl-BCY8234] (I: [Sar][Sar][Sar][Sar][Sar][Sar][Sar][Sar][Sar][Sar]CP[1Nal][dD]CM[hArg]DWSTP[Hyp]WC-NH2 / II: [ξV][Cit][PABC][ξNMeV]V[X1][Dolaproine]-X2; linker I:11-I:15-I:25 via TATA; linker I:N-II:N via X3)
TGI (1 mg/kg qw, day 28): 126.6% | Tumor volume (TV) (1 mg/kg qw, day 28): 384 mm^3 | TGI [1]: 234.0% | Tumor volume (TV) [1]: 55 mm^3 | tumor relapse (in words) (3 mg/kg qw in combination with BCY8234 300 mg/kg qw, whole monitoring schedule): didn't showed any relapse | tumor relapse (in words) (3 mg/kg qw, after ceasing the treatment): some tumor relapse | TGI (3 mg/kg qw, day 28): 234.6% | Tumor volume (TV) (3 mg/kg qw, day 28): 50 mm^3 | Tumor volume (1 mpk, qw, day 0 after the start of treatment): 466 mm^3 | Tumor volume (1 mpk, qw, day 2): 480 mm^3 | Tumor volume (1 mpk, qw, day 5): 453 mm^3 | Tumor volume (1 mpk, qw, day 7): 474 mm^3 | Tumor volume (1 mpk, qw, day 9): 446 mm^3 | Tumor volume (1 mpk, qw, day 12): 461 mm^3 | Tumor volume (1 mpk, qw, day 14): 460 mm^3 | Tumor volume (1 mpk, qw, day 16): 433 mm^3 | Tumor volume (1 mpk, qw, day 19): 412 mm^3 | Tumor volume (1 mpk, qw, day 21): 430 mm^3 | Tumor volume (1 mpk, qw, day 23): 421 mm^3 | Tumor volume (1 mpk, qw, day 26): 382 mm^3 | T/C (1 mpk, qw, day 28): 49.7% | TGI (1 mpk, qw, day 28): 126.6% | Tumor volume (1 mpk, qw, day 28): 384 mm^3 | Tumor volume (3 mpk, qw, day 0 after the start of treatment): 464 mm^3 | Tumor volume (3 mpk, qw, day 2): 451 mm^3 | Tumor volume (3 mpk, qw, day 5): 388 mm^3 | Tumor volume (3 mpk, qw, day 7): 333 mm^3 | Tumor volume (3 mpk, qw, day 9): 284 mm^3 | Tumor volume (3 mpk, qw, day 12): 168 mm^3 | Tumor volume (3 mpk, qw, day 14): 129 mm^3 | Tumor volume (3 mpk, qw, day 16): 93 mm^3 | Tumor volume (3 mpk, qw, day 19): 83 mm^3 | Tumor volume (3 mpk, qw, day 21): 71 mm^3 | Tumor volume (3 mpk, qw, day 23): 60 mm^3 | Tumor volume (3 mpk, qw, day 26): 49 mm^3 | T/C (3 mpk, qw, day 28): 6.4% | TGI (3 mpk, qw, day 28): 234.6% | Tumor volume (3 mpk, qw, day 28): 50 mm^3 | Tumor volume (Group1, Vehicle, dosed with 5 mpk BCY8245 on PG-D28, day 30): 625 ± 27 mm^3 | Tumor volume (Group1, Vehicle, dosed with 5 mpk BCY8245 on PG-D28, day 33): 477 ± 31 mm^3 | Tumor volume (Group1, Vehicle, dosed with 5 mpk BCY8245 on PG-D28, day 35): 405 ± 65 mm^3 | Tumor volume (Group1, Vehicle, dosed with 5 mpk BCY8245 on PG-D28, day 37): 237 ± 36 mm^3 | Tumor volume (Group1, Vehicle, dosed with 5 mpk BCY8245 on PG-D28, day 40): 148 ± 33 mm^3 | Tumor volume (Group1, Vehicle, dosed with 5 mpk BCY8245 on PG-D28, day 42): 142 ± 33 mm^3 | Tumor volume (Group1, Vehicle, dosed with 5 mpk BCY8245 on PG-D28, day 44): 132 ± 69 mm^3 | Tumor volume (Group1, Vehicle, dosed with 5 mpk BCY8245 on PG-D28, day 48): 146 ± 100 mm^3 | Tumor volume (Group1, Vehicle, dosed with 5 mpk BCY8245 on PG-D28, day 51): 171 ± 122 mm^3 | Tumor volume (Group1, Vehicle, dosed with 5 mpk BCY8245 on PG-D28, day 55): 227 ± 166 mm^3 | Tumor volume (Group1, Vehicle, dosed with 5 mpk BCY8245 on PG-D28, day 56): 264 ± 182 mm^3 | Tumor volume (Group1, Vehicle, dosed with 5 mpk BCY8245 on PG-D28, day 62): 288 ± 206 mm^3 | Tumor volume (Group 2, 1 mpk, change in 5 mpk on PG-D28, day 30): 351 ± 42 mm^3 | Tumor volume (Group 2, 1 mpk, change in 5 mpk on PG-D28, day 33): 213 ± 29 mm^3 | Tumor volume (Group 2, 1 mpk, change in 5 mpk on PG-D28, day 35): 151 ± 18 mm^3 | Tumor volume (Group 2, 1 mpk, change in 5 mpk on PG-D28, day 37): 98 ± 16 mm^3 | Tumor volume (Group 2, 1 mpk, change in 5 mpk on PG-D28, day 40): 89 ± 17 mm^3 | Tumor volume (Group 2, 1 mpk, change in 5 mpk on PG-D28, day 42): 95 ± 16 mm^3 | Tumor volume (Group 2, 1 mpk, change in 5 mpk on PG-D28, day 44): 103 ± 20 mm^3 | Tumor volume (Group 2, 1 mpk, change in 5 mpk on PG-D28, day 48): 106 ± 21 mm^3 | Tumor volume (Group 2, 1 mpk, change in 5 mpk on PG-D28, day 51): 103 ± 21 mm^3 | Tumor volume (Group 2, 1 mpk, change in 5 mpk on PG-D28, day 55): 104 ± 20 mm^3 | Tumor volume (Group 2, 1 mpk, change in 5 mpk on PG-D28, day 56): 120 ± 23 mm^3 | Tumor volume (Group3, 3 mpk, qw, day 30): 44 ± 18 mm^3 | Tumor volume (Group3, 3 mpk, qw, day 33): 43 ± 20 mm^3 | Tumor volume (Group3, 3 mpk, qw, day 35): 44 ± 20 mm^3 | Tumor volume (Group3, 3 mpk, qw, day 37): 50 ± 24 mm^3 | Tumor volume (Group3, 3 mpk, qw, day 40): 55 ± 29 mm^3 | Tumor volume (Group3, 3 mpk, qw, day 42): 66 ± 32 mm^3 | Tumor volume (Group3, 3 mpk, qw, day 44): 71 ± 33 mm^3 | Tumor volume (Group3, 3 mpk, qw, day 48): 80 ± 36 mm^3 | Tumor volume (Group3, 3 mpk, qw, day 51): 91 ± 43 mm^3 | Tumor volume (Group3, 3 mpk, qw, day 55): 108 ± 53 mm^3
